# From patent US7517874B2 (priority 2007, dated 2009)
# Where two headings read alike, the source gives them in different places.
# Legend:
# [1] = target: human CB1 receptor (hCB1) (Homo sapiens, UniProt P21554); assay: cell-based; format: cell-based
# Procedure, shortened: (§1)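 First, cells in IBMX-containing HEPES-buffered HBSS are raised to elevated cAMP with 2-8 μM NKH-477 for 30 min. Data are normalised to the forskolin and forskolin + 1 μM CP55,940 controls.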
# [2] = target: T1, rat CB2 receptor (rCB2) (Rattus norvegicus, UniProt Q9QZN9); assay: cell-based; format: cell-based; details: for +/− RCB2: agonist or inverse agonist at rCB2
# T1 sequence (Q9QZN9 1-360): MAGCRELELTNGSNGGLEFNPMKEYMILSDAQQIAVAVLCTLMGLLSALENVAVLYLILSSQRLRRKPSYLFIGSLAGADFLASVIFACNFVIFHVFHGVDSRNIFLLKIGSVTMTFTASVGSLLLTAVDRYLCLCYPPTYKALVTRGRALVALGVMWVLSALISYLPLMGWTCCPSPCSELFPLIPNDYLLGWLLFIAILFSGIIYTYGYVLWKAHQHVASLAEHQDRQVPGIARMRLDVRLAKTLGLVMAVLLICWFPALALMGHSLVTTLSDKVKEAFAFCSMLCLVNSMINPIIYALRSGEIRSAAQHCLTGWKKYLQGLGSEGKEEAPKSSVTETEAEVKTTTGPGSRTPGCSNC
# Procedure, shortened: as §1
# [3] = groups >100 nM-10 μM and >10 μM, cAMP, CHO-K1 hCB1, read-out: EC50 HCB1
# [4] = groups >100 nM-10 μM and >10 μM, cAMP, CHO-K1 rCB2, read-out: EC50 RCB2
# human CB1 receptor (hCB1), sequence (P21554 whole entry): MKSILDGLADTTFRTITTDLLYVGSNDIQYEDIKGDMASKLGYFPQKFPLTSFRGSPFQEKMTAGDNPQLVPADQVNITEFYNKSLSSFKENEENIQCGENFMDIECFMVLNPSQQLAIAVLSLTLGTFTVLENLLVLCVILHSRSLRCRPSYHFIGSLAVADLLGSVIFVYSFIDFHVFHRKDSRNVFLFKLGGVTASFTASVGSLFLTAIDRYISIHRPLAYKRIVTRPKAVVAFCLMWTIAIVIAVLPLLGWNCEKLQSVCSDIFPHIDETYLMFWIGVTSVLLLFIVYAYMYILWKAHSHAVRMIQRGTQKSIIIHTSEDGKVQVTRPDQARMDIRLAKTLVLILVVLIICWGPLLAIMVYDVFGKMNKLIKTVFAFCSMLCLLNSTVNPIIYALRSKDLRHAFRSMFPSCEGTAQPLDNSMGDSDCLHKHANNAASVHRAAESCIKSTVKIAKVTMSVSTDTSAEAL
Structure (SMILES),EC50 [1],+/− RCB2 [2],EC50 [2],"EC50 [1, 3]","EC50 [2, 4]"
"CCC(=O)N1CCn2c(-c3ccccc3)nc(C(=O)N[C@H](C(=O)NC)C(C)(C)C)c2C1 [Compound 189, (S)-N-(3,3-dimethyl-1-(methylamino)-1-oxobutan-2-yl)-3-phenyl-7-propionyl-5,6,7,8-tetrahydroimidazo[1,5-a]pyrazine-1-carboxamide]",> 10000 nM,+,,,
"CNC(=O)[C@@H](NC(=O)c1nc(-c2ccccc2)n2c1CN(C(=O)C(C)(C)C)CC2)C(C)(C)C [Compound 190, (S)-N-(3,3-dimethyl-1-(methylamino)-1-oxobutan-2-yl)-3-phenyl-7-pivaloyl-5,6,7,8-tetrahydroimidazo[1,5-a]pyrazine-1-carboxamide]",> 10000 nM,−,,,
"CNC(=O)[C@@H](NC(=O)c1nc(-c2ccccc2)n2c1CN(C(=O)C(C)C)CC2)C(C)(C)C [Compound 191, (S)-N-(3,3-dimethyl-1-(methylamino)-1-oxobutan-2-yl)-7-isobutyryl-3-phenyl-5,6,7,8-tetrahydroimidazo[1,5-a]pyrazine-1-carboxamide]",> 10000 nM,−,,,
"CNC(=O)[C@@H](NC(=O)c1nc(-c2ccccc2)n2c1CN(C(=O)NC(C)(C)C)CC2)C(C)(C)C [Compound 192, (S)-N7-tert-butyl-N1-(3,3-dimethyl-1-(methylamino)-1-oxobutan-2-yl)-3-phenyl-5,6-dihydroimidazo[1,5-a]pyrazine-1,7(8H)-dicarboxamide]",> 10000 nM,−,,,
"CCCNC(=O)N1CCn2c(-c3ccccc3)nc(C(=O)N[C@H](C(=O)NC)C(C)(C)C)c2C1 [Compound 193, (S)-N1-(3,3-dimethyl-1-(methylamino)-1-oxobutan-2-yl)-3-phenyl-N7-propyl-5,6-dihydroimidazo[1,5-a]pyrazine-1,7(8H)-dicarboxamide]",> 10000 nM,−,,,
"CNC(=O)[C@@H](NC(=O)c1nc(-c2ccccc2)n2c1CN(C(=O)Nc1ccccc1)CC2)C(C)(C)C [Compound 194, (S)-N1-(3,3-dimethyl-1-(methylamino)-1-oxobutan-2-yl)-N7,3-diphenyl-5,6-dihydroimidazo[1,5-a]pyrazine1,7-(8H)-dicarboxamide]",> 10000 nM,,> 10000 nM,,
"CCCNC(=S)N1CCn2c(-c3ccccc3)nc(C(=O)N[C@H](C(=O)NC)C(C)(C)C)c2C1 [Compound 195, (S)-N-(3,3-dimethyl-1-(methylamino)-1-oxobutan-2-yl)-3-phenyl-7-(propylcarbamothioyl)-5,6,7,8-tetrahydroimidazo[1,5-a]pyrazine-1-carboxamide]",> 10000 nM,−,,,
"CN(C)C(=O)[C@@H](NC(=O)c1nc(-c2ccccc2)n2c1CNCC2)C(C)(C)C [Compound 196, (S)-N-(1-(dimethylamino)-3,3-dimethyl-1-oxobutan-2-yl)-3-phenyl-5,6,7,8-tetrahydroimidazo[1,5-a]pyrazine-1-carboxamide]",> 10000 nM,−,,,
"CNC(=O)[C@@H](NC(=O)c1nc(-c2ccccc2)n2c1CN(C1CC1)CC2)C(C)(C)C [Compound 197, (S)-7-cyclopropyl-N-(3,3-dimethyl-1-(methylamino)-1-oxobutan-2-yl)-3-phenyl-5,6,7,8-tetrahydroimidazo[1,5-a]pyrazine-1-carboxamide]",> 10000 nM,−,,,
"Cc1noc([C@@H](NC(=O)c2nc(-c3ccccc3)n3c2CN(C2CC2)CC3)C(C)(C)C)n1 [Compound 198, (S)-7-cyclopropyl-N-(2,2-dimethyl-1-(3-methyl-1,2,4-oxadiazol-5-yl)propyl)-3-phenyl--5,6,7,8-tetrahydroimidazo[1,5-a]pyrazine-1-carboxamide]",> 10000 nM,−,,,
"CNC(=O)[C@@H](NC(=O)c1nc(-c2ccccc2)n2c1CN(C1CC1)CCC2)C(C)(C)C [Compound 199, (S)-8-cyclopropyl-N-(3,3-dimethyl-1-(methylamino)-1-oxobutan-2-yl)-3-phenyl-6,7,8,9-tetrahydro-5H-imidazo[1,5-a][1,4]diazepine-1-carboxamide]",> 10000 nM,+,,,
"Cc1nnc([C@@H](NC(=O)c2nc(-c3ccccc3)n3c2CNCC3)C(C)(C)C)o1 [Compound 200, (S)-N-(2,2-dimethyl-1-(5-methyl-1,3,4-oxadiazol-2-yl)propyl)-3-phenyl-5,6,7,8-tetrahydroimidazo[1,5-a]pyrazine-1-carboxamide]",> 10000 nM,+,,,
"Cc1nnc([C@@H](NC(=O)c2nc(-c3ccccc3)n3c2CN(C)CC3)C(C)(C)C)o1 [Compound 201, (S)-N-(2,2-dimethyl-1-(5-methyl-1,3,4-oxadiazol-2-yl)propyl)-7-methyl-3-phenyl-5,6,7,8-tetrahydroimidazo[1,5-a]pyrazine-1-carboxamide]",> 10000 nM,+,,,
"Cc1nnc([C@@H](NC(=O)c2nc(-c3ccccc3)n3c2CN(CC(C)C)CC3)C(C)(C)C)o1 [Compound 202, (S)-N-(2,2-dimethyl-1-(5-methyl-1,3,4-oxadiazol-2-yl)propyl)-7-isobutyl-3-phenyl-5,6,7,8-tetrahydroimidazo[1,5-a]pyrazine-1-carboxamide]",> 10000 nM,−,,,
"CNC(=O)[C@@H](NC(=O)c1nc(C#Cc2ccccc2)n2c1CN(C)CC2)C(C)(C)C [Compound 204, (S)-N-(3,3-dimethyl-1-(methylamino)-1-oxobutan-2-yl)-7-methyl-3-(phenylethynyl)-5,6,7,8-tetrahydroimidazo[1,5-a]pyrazine-1-carboxamide]",> 10000 nM,,> 10000 nM,,
"CNC(=O)[C@@H](NC(=O)c1nc(C#Cc2cccnc2)n2c1CN(C)CC2)C(C)(C)C [Compound 205, (S)-N-(3,3-dimethyl-1-(methylamino)-1-oxobutan-2-yl)-7-methyl-3-(pyridin-3-ylethynyl)-5,6,7,8-tetrahydroimidazo[1,5-a]pyrazine-1-carboxamide]",> 10000 nM,,> 10000 nM,,
"CNC(=O)[C@@H](NC(=O)c1nc(-c2ccccc2)n2c1CN(C)CC2)C(C)C [Compound 206, (S)-7-methyl-N-(3-methyl-1-(methylamino)-1-oxobutan-2-yl)-3-phenyl-5,6,7,8-tetrahydroimidazo[1,5-a]pyrazine-1-carboxamide]",> 10000 nM,+,,,
"CNC(=O)[C@@H](NC(=O)c1nc(-c2ccccc2)n2c1CN(C)CC2)c1ccccc1 [Compound 207, (S)-7-methyl-N-(2-(methylamino)-2-oxo-1-phenylethyl)-3-phenyl-5,6,7,8-tetrahydroimidazo[1,5-a]pyrazine-1-carboxamide]",> 10000 nM,+,,,
"CN1CCn2c(-c3ccc(Cl)cc3F)nc(C(=O)Nc3ccc(S(N)(=O)=O)cc3)c2C1 [Compound 208, 3-(4-chloro-2-fluorophenyl)-7-methyl-N-(4-sulfamoylphenyl)-5,6,7,8-tetrahydroimidazo[1,5-a]pyrazine-1-carboxamide]",> 10000 nM,−,,,
"CN1CCn2c(-c3ccc(Cl)cc3F)nc(C(=O)NC3CCN(C(=O)OC(C)(C)C)CC3)c2C1 [Compound 209, tert-butyl 4-(3-(4-chloro-2-fluorophenyl)-7-methyl-5,6,7,8-tetrahydroimidazo[1,5-a]pyrazine-1-carboxamido)piperidine-1-carboxylate]",> 10000 nM,,> 10000 nM,,
"CN1CCn2c(-c3ccc(Cl)cc3F)nc(C(=O)N3CCN(C(=O)c4ccccc4)CC3)c2C1 [Compound 210, (4-benzoylpiperazin-1-yl)(3-(4-chloro-2-fluorophenyl)-7-methyl-5,6,7,8-tetrahydroimidazo[1,5-a]pyrazin-1-yl)methanone]",,,,> 10000 nM,> 10000 nM
"CN1CCn2c(-c3ccc(Cl)cc3F)nc(C(=O)N3CCN(c4ncccn4)CC3)c2C1 [Compound 211, (3-(4-chloro-2-fluorophenyl)-7-methyl-5,6,7,8-tetrahydroimidazo[1,5-a]pyrazin-1-yl)(4-(pyrimidin-2-yl)piperazin-1-yl)methanone]",,,,> 10000 nM,> 10000 nM
"CN1CCn2c(-c3ccc(Cl)cc3F)nc(C(=O)N3CCC(n4c(=O)[nH]c5cc(Cl)ccc54)CC3)c2C1 [Compound 212, 5-chloro-1-(1-(3-(4-chloro-2-fluorophenyl)-7-methyl-5,6,7,8-tetrahydroimidazo[1,5-a]pyrazine-1-carbonyl)piperidin-4-yl)-1H-benzo[d]imidazol-2(3H)-one]",,−,,> 10000 nM,
"CN1CCn2c(-c3ccc(Cl)cc3F)nc(C(=O)NC3CCN(S(C)(=O)=O)CC3)c2C1 [Compound 213, 3-(4-chloro-2-fluorophenyl)-7-methyl-N-(1-(methylsulfonyl)piperidin-4-yl)-5,6,7,8-tetrahydroimidazo[1,5-a]pyrazine-1-carboxamide]",,,,> 10000 nM,> 10000 nM
"CN1CCn2c(-c3ccc(Cl)cc3F)nc(C(=O)N3CCC4(CC3)C(=O)NCN4c3ccccc3)c2C1 [Compound 214, 8-(3-(4-chloro-2-fluorophenyl)-7-methyl-5,6,7,8-tetrahydroimidazo[1,5-a]pyrazine-1-carbonyl)-1-phenyl-1,3,8-triazaspiro[4.5]decan-4-one]",> 10000 nM,−,,,
